Reference: US4728733A, “C-3' thiadiazinyl cephalosporin analogs” (American Home Products Corporation, priority 1985, dated 1988)
Values after ≈ are worked out from the molar mass of the structure shown. Counter-ions that a name gives are not always drawn.

Assays:
Format in all cases: cell-based
[1] = test system: Enterobacter cloacae ATCC 13047; experiment: Antibacterial activity, MIC, procedure B (agar dilution); conditions: ATCC13047
Method: (§1) The compounds of the invention are tested for their antibacterial activity. The test can be carried out in two ways:
(§2) B. The organisms used in the test comprise the following: Staphylococcus aureus (penicillin-sensitive and resistant), Pseudomonas aeruginosa, Escherichia coli, […], Bordetella bronchiseptica, Proteus vulgaris, P. mirabilis, Acinetobacter calcoaceticus.
(§3) Test organisms may be added or deleted in order to reflect current clinical patterns of antibiotic susceptibility or shifts in pathogenic potential.
(§4) Organisms are normally grown for 18 hours in Brain Heart Infusion at 35° C. Cultures are adjusted with saline to MacFarland No. 1.5 standard prior to use.
(§5) Stock concentrations (e.g. 2,5000 μg or units per ml) are prepared in a suitable vehicle. Two-fold dilutions are made. One ml quantities of each dilution are incorporated in 9 ml of the appropriate agar (e.g. Seed) in sterile Petri plates. The hardened surface is inoculated with test organisms by use of a Steers replicating device. The plates are incubated (e.g. 18 hours at 35° C.) and activity is determined.

[2] = test system: Serratia marcescens ATCC 13880; experiment: as above; conditions: ATCC13880
Method: as §1, §2, §3, §4, §5

[3] = test system: Pseudomonas aeruginosa ATCC 27853; experiment: as above; conditions: ATCC27853
Method: as §1, §2, §3, §4, §5

[4] = test system: Proteus vulgaris A 84354 1; experiment: as above; conditions: A843541
Method: as §1, §2, §3, §4, §5

[5] = test system: Escherichia coli ATCC 25922; experiment: as above; conditions: ATCC25922
Method: as §1, §2, §3, §4, §5

[6] = test system: Streptococcus faecalis ATCC 29212; experiment: as above; conditions: Enterococcus faecalis, ATCC29212
Method: as §1, §2, §3, §4, §5

[7] = test system: Staphylococcus aureus ATCC 29213; experiment: as above; conditions: ATCC29213
Method: as §1, §2, §3, §4, §5

[8] = test system: Klebsiella pneunomiae KL-1; experiment: as above; conditions: KL1
Method: as §1, §2, §3, §4, §5

[9] = test system: Enterobacter cloacae ATCC 13047; experiment: Antibacterial activity, MIC, procedure A (broth dilution); conditions: ATCC13047
Method: as §1
(§6) A. The organisms used in the test comprise the following: Staphylococcus aureus (penicillin-sensitive and resistant), Pseudomonas aeruginosa, Escherichia coli, […], Bordetella bronchiseptica, Proteus vulgaris, P. mirabilis, Acinetobacter calcoaceticus.
as §3
(§7) Stock solution of appropriate medium (e.g. Mueller-Hinton Broth) is sterilized. Starting at a predetermined concentration (e.g. 250 μg/ml), two-fold dilutions are made with the Dynatech Automatic Diluter in a Microtiter plate of 8 rows of 12 wells each in which 11 wells in each row contain 50 μl of medium (e.g. Mueller-Hinton Broth) and the 12th well contains in 100 μl an aliquot of the compound to be tested. The diluted plates are inoculated using the Dynatech Automatic Inoculator which delivers the final inoculum (e.g. 10^5 cfu/ml of a seven-hour culture which has been incubated at 35° C.).
(§8) Plates are sealed with tape and incubated (e.g. 18 hours at 35° C.).

[10] = test system: Serratia marcescens ATCC 13880; experiment: as above; conditions: ATCC13880
Method: as §1, §6, §3, §7, §8

[11] = test system: Pseudomonas aeruginosa ATCC 27853; experiment: as above; conditions: ATCC27853
Method: as §1, §6, §3, §7, §8

[12] = test system: Proteus vulgaris A 84354 1; experiment: as above; conditions: A843541
Method: as §1, §6, §3, §7, §8

[13] = test system: Escherichia coli ATCC 25922; experiment: as above; conditions: ATCC25922
Method: as §1, §6, §3, §7, §8

[14] = test system: Streptococcus faecalis ATCC 29212; experiment: as above; conditions: Enterococcus faecalis, ATCC29212
Method: as §1, §6, §3, §7, §8

[15] = test system: Staphylococcus aureus ATCC 29213; experiment: as above; conditions: ATCC29213
Method: as §1, §6, §3, §7, §8

[16] = test system: Klebsiella pneunomiae KL-1; experiment: as above; conditions: KL1
Method: as §1, §6, §3, §7, §8

MIC [1] [mg/L] | MIC [2] [mg/L] | MIC [3] [mg/L] | MIC [4] [mg/L] | MIC [5] [mg/L] | MIC [6] [mg/L] | MIC [7] [mg/L] | MIC [8] [mg/L] | MIC [9] [mg/L] | MIC [10] [mg/L] | MIC [11] [mg/L] | MIC [12] [mg/L] | MIC [13] [mg/L] | MIC [14] [mg/L] | MIC [15] [mg/L] | MIC [16] [mg/L] | SMILES
64 (≈ 102 µM) | 32 (≈ 51.2 µM) | 256 (≈ 410 µM) | 0.25 (≈ 0.4 µM) | 2 (≈ 3.2 µM) | 256 (≈ 410 µM) | 64 (≈ 102 µM) | 1 (≈ 1.6 µM) |  |  |  |  |  |  |  |  | CO/N=C(\C(=O)N[C@@H]1C(=O)N2C(C(=O)OC(C)(C)C)=C(CN3C(=O)C(C#N)=CNS3(=O)=O)CS[C@H]12)c1csc(N)n1 [Example 1 B, (6R,7R)-7-[[(Z)-(2-Amino-4-thiazolyl)(methoxyimino)acetyl]amino]-3-[(4-cyano-3,6-dihydro-3-oxo-2H-1,2,6-thiadiazin-2-yl)methyl]-8-oxo-5-thia-1-azabicyclo[4.2.0]oct-2-ene-2-carboxylic acid 1,1-dimethylethyl ester S^3, S^3-dioxide]
 |  |  |  |  |  |  |  | 64 | 16 | 128 | 0.25 | 4 | 128 | 32 | 2 | CO/N=C(\C(=O)N[C@@H]1C(=O)N2C(C(=O)O)=C(CN3C(=O)c4ccccc4NS3(=O)=O)CS[C@H]12)c1csc(N)n1 [Example 2 C, (6R,7R)-7-[[(Z)-(2-Amino-4-thiazolyl)(methoxyimino)acetyl]amino]-3-[(1,4-dihydro-4-oxo-3H-2,1,3-benzothiadiazin-3-yl)methyl]-8-oxo-5-thia-1-azabicyclo[4.2.0]oct-2-ene-2-carboxylic acid S^3, S^3-dioxide, trifluoroacetate salt]
 |  |  |  |  |  |  |  | 64 (≈ 98.5 µM) | 64 (≈ 98.5 µM) | 128 (≈ 197 µM) | 1 (≈ 1.54 µM) | 8 (≈ 12.3 µM) | 128 (≈ 197 µM) | 64 (≈ 98.5 µM) | 4 (≈ 6.16 µM) | CO/N=C(\C(=O)N[C@@H]1C(=O)N2C(C(=O)OC(C)(C)C)=C(CN3C(=O)c4ccccc4NS3(=O)=O)CS[C@H]12)c1csc(N)n1 [Example 2 B, (6R,7R)-7-[[(Z)-(2-Amino-4-thiazolyl)(methoxyimino)acetyl]amino]-3-[(1,4-dihydro-4-oxo-3H-2,1,3-benzothiadiazin-3-yl)methyl]-8-oxo-5-thia-1-azabicyclo[4.2.0]oct-2-ene-2-carboxylic acid 1,1-dimethylethyl ester, S^3, S^3-dioxide]
32 | 8 | 256 | 1 | 1 | 128 | 32 | 0.125 |  |  |  |  |  |  |  |  | CO/N=C(\C(=O)N[C@@H]1C(=O)N2C(C(=O)O)=C(CN3C(=O)C(C#N)=CNS3(=O)=O)CS[C@H]12)c1csc(N)n1 [Example 1 C, (6R,7R)-7-[[(Z)-(2-Amino-4-thiazolyl)(methoxyimino)acetyl]amino]-3-[(4-cyano-3,6-dihydro-3-oxo-2H-1,2,6-thiadiazin-2-yl)methyl]-8-oxo-5-thia-1-azabicyclo[4.2.0]oct-2-ene-2-carboxylic acid, S^3, S^3-dioxide, trifluoroacetate salt]
